Data taken from the supplement of paper PMC10307832.

Tests used:
Adavosertib + Trametinib = compound: C=CCn1c(=O)c2cnc(Nc3ccc(N4CCN(C)CC4)cc3)nc2n1-c1cccc(C(C)(C)O)n1 [Adavosertib] + CC(=O)Nc1cccc(-n2c(=O)n(C3CC3)c(=O)c3c(Nc4ccc(I)cc4F)n(C)c(=O)c(C)c32)c1 [Trametinib] (partner 0.02 µM); assay: relative viability (nuclei count vs DMSO), 5 days (fraction); higher = more cells survive
How it was run: (§1)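 Lung cancer cell lines in 1536-well plates were dosed by pin tool the day after seeding, either with one drug alone or with a fixed anchor-drug dose plus five library-drug doses (not always all listed) in √10 steps. After 5 days, cells were fixed and their nuclei stained in one step (final 0.05% Triton X-100, 1% formaldehyde, 1 ug/ml Hoechst), then counted on 4× images. Relative viability is the nuclei count in treated wells divided by that in vehicle wells. Values are medians of duplicate plates.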

Adavosertib + AZD7762 = compound: C=CCn1c(=O)c2cnc(Nc3ccc(N4CCN(C)CC4)cc3)nc2n1-c1cccc(C(C)(C)O)n1 [Adavosertib] + NC(=O)Nc1cc(-c2cccc(F)c2)sc1C(=O)N[C@H]1CCCNC1 [AZD7762] (partner 0.2 µM); assay: as above
How it was run: as §1

Cell Line | relative viability (Adavosertib + Trametinib; first compound 0.01 µM) | relative viability (Adavosertib + Trametinib; first compound 0.03162 µM) | relative viability (Adavosertib + Trametinib; first compound 0.1 µM) | relative viability (Adavosertib + Trametinib; first compound 0.3162 µM) | relative viability (Adavosertib + AZD7762; first compound 0.01 µM) | relative viability (Adavosertib + AZD7762; first compound 0.03162 µM) | relative viability (Adavosertib + AZD7762; first compound 0.1 µM) | relative viability (Adavosertib + AZD7762; first compound 0.3162 µM)
NCI-H520 | 0.797 | 0.65 | 0.634 | 0.629 | – | – | – | –
HCC-44 | 1.08 | 1.05 | 1.19 | 1.12 | 0.989 | 0.971 | 1.02 | 0.902
NCI-H2087 | 0.217 | 0.204 | 0.207 | 0.2 | 1.37 | 1.21 | 1.3 | 1.03
CAL-12T | 0.334 | 0.338 | 0.312 | 0.29 | 0.569 | 0.41 | 0.427 | 0.232
NCI-H1355 | 0.442 | 0.373 | 0.445 | 0.457 | 0.734 | 0.599 | 0.406 | 0.307
HARA | 0.696 | 0.729 | 0.75 | 0.611 | 0.296 | 0.192 | 0.155 | 0.129
NCI-H2085 | 0.544 | 0.568 | 0.435 | 0.524 | 0.995 | 0.909 | 0.731 | 0.409
LCLC-103H | 0.641 | 0.688 | 0.668 | 0.7 | 0.786 | 0.783 | 0.775 | 0.408
NCI-H2405 | – | 0.63 | 0.721 | 0.671 | – | 0.663 | 0.331 | 0.276
NCI-H1666 | 0.797 | 0.782 | 1.02 | 0.813 | 0.766 | 0.829 | 0.803 | 0.625
BEN | 1.02 | 1 | 1.27 | 1.18 | 0.571 | 0.622 | 0.632 | 0.451
201T | 0.657 | 0.707 | 0.736 | 0.718 | 0.615 | 0.537 | 0.471 | 0.267
NCI-H322M | 0.48 | 0.489 | 0.471 | 0.389 | 0.472 | 0.427 | 0.387 | 0.337
NCI-H1792 | 0.378 | 0.505 | 0.448 | 0.42 | 0.683 | 0.652 | 0.452 | 0.135
NCI-H358 | 0.132 | 0.124 | 0.124 | 0.124 | 0.486 | 0.488 | 0.329 | 0.234
NCI-H2347 | 0.287 | 0.327 | 0.323 | 0.285 | 0.791 | 0.674 | 0.476 | 0.329
NCI-H1793 | 0.44 | 0.421 | 0.501 | 0.395 | 0.407 | 0.2 | 0.14 | 0.179
LU99A | 0.624 | 0.61 | 0.634 | 0.464 | 0.295 | 0.196 | 0.184 | 0.122

Cell Line | relative viability (Adavosertib + Trametinib; first compound 0.01 µM) | relative viability (Adavosertib + Trametinib; first compound 0.03162 µM) | relative viability (Adavosertib + Trametinib; first compound 0.1 µM) | relative viability (Adavosertib + Trametinib; first compound 0.3162 µM) | relative viability (Adavosertib + AZD7762; first compound 0.01 µM) | relative viability (Adavosertib + AZD7762; first compound 0.03162 µM) | relative viability (Adavosertib + AZD7762; first compound 0.1 µM) | relative viability (Adavosertib + AZD7762; first compound 0.3162 µM)
NCI-H661 | 0.686 | 0.621 | 0.68 | 0.486 | – | – | – | –
SW 900 | 0.682 | 0.892 | 0.957 | 0.696 | 0.559 | 0.422 | 0.281 | 0.175
HCC-827 | 0.533 | 0.567 | 0.492 | 0.522 | 0.196 | 0.166 | 0.179 | 0.15
A-427 | 0.771 | 0.808 | 0.805 | 0.565 | 0.692 | 0.4 | 0.327 | 0.231
NCI-H2009 | 0.291 | 0.308 | 0.254 | 0.217 | – | – | – | –
EPLC-272H | 0.293 | 0.309 | 0.288 | 0.275 | 0.161 | 0.151 | 0.127 | 0.135
LC-2-ad | 0.865 | 0.908 | 0.914 | 1.04 | 0.792 | 0.846 | 0.817 | 0.62
HCC-366 | 0.387 | 0.353 | 0.352 | 0.344 | 0.292 | 0.21 | 0.184 | 0.0419
RERF-LC-KJ | 0.782 | 0.853 | 0.851 | 0.929 | 0.987 | 1.02 | 1.02 | 0.878
EKVX | 0.327 | 0.34 | 0.377 | 0.401 | 0.595 | 0.731 | 0.635 | 0.799
NCI-H1395 | 1.06 | 1.12 | 1.08 | 0.864 | 0.377 | 0.354 | 0.345 | 0.316
LOU-NH91 | 0.773 | 0.799 | 0.828 | 0.774 | 0.776 | 0.723 | 0.645 | 0.531
NCI-H647 | 0.561 | 0.432 | 0.428 | 0.415 | 0.351 | 0.358 | 0.167 | 0.0858
NCI-H3122 | 0.201 | 0.198 | 0.272 | 0.227 | 0.998 | 0.829 | 0.963 | 0.511
NCI-H650 | 0.935 | 1.01 | 0.942 | 1.07 | 0.736 | 0.809 | 0.411 | 0.221
H3255 | 0.576 | 0.591 | 0.616 | 0.634 | 0.824 | 0.854 | 0.721 | 0.559
SW 1573 | 0.525 | 0.564 | 0.605 | 0.638 | – | – | – | –
